SMILES	melting point [°C]
COc1ccc(N2CCN(c3c(C)c(C)c4c(c3C)C(N3CCc5ccccc5C3)C(C)(C)O4)CC2)cc1 (stereo unspecified)	144 to 145
CC1(CN=[N+]=[N-])SC2C(NC(=O)Cc3ccccc3)C(=O)N2C1C(=O)OCC(Cl)(Cl)Cl (stereo unspecified)	105 to 106
CCOc1ccccc1CS(N)(=O)=O	92 to 93
CC(C)(CC(O)(C(=O)Nc1ccc([N+](=O)[O-])c(C(F)(F)F)c1)C(F)(F)F)c1ccccc1 (stereo unspecified)	119 to 120
Cc1ccc(Nc2nnc(Cc3ccncc3)c(C)c2C)cc1	68 to 70
CCCn1cnc2c1c1n[nH]c(=O)n1c(=O)n2CCC	217 to 218
CCCCN(CCCC)S(=O)(=O)c1ccc(C(CC2CCCC2)C(=O)Nc2nc3ccc(OC)nc3s2)cc1 (stereo unspecified)	65 to 67
CCOC(=O)c1cnc2cc(N)ccc2n1	181 to 183
O=C(NCCCCCCOC(=O)N1CCC2(CCCC2)CC1)OC1CCN(C(=O)Oc2ccc(-c3ccccc3)cc2)CC1	110 to 111
COCCOc1cc([N+](=O)[O-])c2[nH]c(C3=NCC(C(OC)OC)S3)cc2c1 (stereo unspecified)	100 to 101
Nc1c(Br)cc([N+](=O)[O-])cc1C(F)(F)F	84
O=C(O)CCCCCC[C@H]1CC[C@@H](O)CC1	75 to 79
Cc1nc(I)cn1-c1ccc(F)cc1	151
O=C1NC(=C2CCC2)Sc2ccccc21	147 to 149
CCCOC(Cc1ccc(OCCc2nc(-c3ccccc3)oc2C)c2ccccc12)C(=O)O (stereo unspecified)	103 to 105
COc1cc(N)ccc1S(=O)(=O)n1c(=O)n(C2CCCCC2)c2cc(Cl)ccc21	211
O=[N+]([O-])c1ccccc1C(Cl)Cl	25.6 to 26.7
COC(=O)Cc1c(C(=O)OC)ccn1CCI	137 to 138
Cc1cn(-c2cc(NC(=O)c3cccc4cc(Oc5ccnc(N)c5)ccc34)cc(C(F)(F)F)c2)cn1	236 to 239
COc1cc2ncc(C#N)c(Nc3ccc4[nH]ccc4c3)c2cc1OC	> 250
CCOC(=O)c1ccc2c(c1)CC(Cc1cncs1)C2 (stereo unspecified)	47 to 49

SMILES	melting point [°C]
COc1c(Cl)cc(C(=O)O)c2cccc(S(=O)(=O)N(C)C)c12	127 to 137
Cc1nn(C)c(C(=O)N(C)C)c1Nc1ccccc1[N+](=O)[O-]	144 to 146
NS(=O)(=O)c1cnc(C2CC2=O)s1 (stereo unspecified)	148 to 149
CCCCN(Cc1ccc(-c2ccccc2-c2nnn[nH]2)cc1)c1ncccc1C(=O)O	203 to 205
CCCc1nn(-c2ccc(C(F)(F)F)cn2)cc1CO	120 to 121
Clc1nc(-c2ccccn2)[nH]c1I	188 to 189
O=C(O)Cc1cccc(CCNC(=O)C2Cc3ccccc3N2S(=O)(=O)c2ccc(-c3cccc(C(F)(F)F)c3)cc2)c1 (stereo unspecified)	90
CCC(C)(C)c1cccc(NC=O)c1C	51 to 53
O=C(Nc1ccccc1)N1CCC(c2nn(-c3ccccc3)c3cc(F)ccc23)CC1	163 to 165
CC(C)C[C@@H]1N[C@@H](c2ccc(C#N)cc2)[C@H]2C(=O)N(Cc3ccccc3)C(=O)[C@H]21 (racemic)	152 to 153
O=C1CC(SCc2ccccc2)C(O)(c2ccccc2)C(SCc2ccccc2)C1 (stereo unspecified)	120
O=C(O)[C@H]1CC[C@@H](C(=O)N(Cc2ccccc2)OCc2ccccc2)C1 (relative stereo)	118 to 120
COc1ccc(CC(C(N)=O)S(C)=O)cc1C(=O)NCc1ccc(C(F)(F)F)cc1 (stereo unspecified)	170 to 171
COC1=C(OC)C(=O)C2=C(CCC(CCOc3ccccc3)CC2)C1=O	71 to 72
C=CCC(O)(Cn1cncn1)c1ccc(Cl)cc1Cl (stereo unspecified)	101
CCn1c(COC(N)=O)nc(C2CC2)c1Sc1cc(C#N)cc(C#N)c1	170 to 172
ClCc1cccc2nnsc12	78 to 80
Cc1cc(C)c2cccc(OCc3c(C)ccc(S(=O)(=O)N4CCC[C@H]4C(=O)NCCCNC(=O)c4ccc(C=NN)cc4)c3C)c2n1	150
N#CC(=CN1CCOCC1)C(C[N+](=O)[O-])c1cccc(Cl)c1Cl (stereo unspecified)	74 to 77
O=[N+]([O-])c1ccc(Oc2ccc(C(F)(F)F)cc2Cl)cc1NCP(=O)(O)O	148 to 150
NC(=O)Cc1cc(Oc2ccc3c(ccn3C(=O)Nc3ccc(CN4CCOCC4)c(C(F)(F)F)c3)c2)ncn1	219 to 221

SMILES	melting point [°C]
COC(=O)C(c1ccc(OCCNC(=O)C2Cc3ccccc3N2S(=O)(=O)c2ccc(-c3cccc(C(F)(F)F)c3)cc2)cc1)C(C)C (stereo unspecified)	68 to 76
CS(=O)(=O)Cc1ccc(Oc2cc(OC3CCOCC3)c3[nH]c(C4=NCC(CC(N)=O)S4)cc3c2)cn1 (stereo unspecified)	164 to 167
O=C(Nc1ccc2c(c1)CCSC2)OCc1ccccc1	116 to 118
Cc1c(N2CC[C@@H](N)[C@H](C)C2)c(F)cc2c(=O)c(C(=O)O)cn(C3CC3)c12 (relative stereo)	223 to 225
C=CCOc1ccc(C(=O)C=Cc2c(OC)cccc2OC)cc1	102 to 103
C#CCCOc1cc(N2C(=O)CC(C(F)(F)F)CC2=O)c(F)cc1Cl	89 to 91
CN(CCCCCCCNC(=NCCSCc1csc(NC(=N)N)n1)NC#N)CCN(Cc1ccc(F)cc1)c1ccccn1	118
Cc1cc(-n2ccnc2)c2cccc(OCc3c(Cl)ccc(S(=O)(=O)N4CCCC4C(=O)NCC4CCCCN4C(=O)CC(=O)O)c3Cl)c2n1 (stereo unspecified)	130
CP(=O)(O)C[C@@H](O)CN	221 to 222
COc1c(F)cccc1C(=O)Cl	71 to 73
CC(=O)OCCNC(=O)NCc1ccc(-c2csc(N=C(N)N)n2)o1	200 to 202
Cc1ccc(C)c(C2C(=O)CC(C)C2=O)c1 (stereo unspecified)	138 to 140
COc1cc2ncnc(N3CCN(C(=S)Nc4ccncc4)CC3)c2cc1OC	218 to 220
O=C1C(=c2[nH]c(=c3[nH]c(=C4C(=O)N(c5ccccc5)C(=O)N(c5ccccc5)C4=O)c4ccccc34)c3ccccc23)C(=O)N(c2ccccc2)C(=O)N1c1ccccc1	> 300
O=[N+]([O-])c1cccc(Nc2nc(Cl)nc(NC3CCCCCC3)n2)c1	82
CC1(C)CS(=O)(=O)CC(C)(C)N1N=O	184
O=C(CNC(=O)OCc1ccccc1)NCC1CCCCC1	95 to 98
c1ccc(OCC2CO2)c(Cc2cccc3[nH]ccc23)c1 (stereo unspecified)	78
Cc1cccc(-c2cc(=O)c(C)c(-c3ccccc3)n2-c2ccccc2F)c1	211 to 214
CCOC(=O)c1cn(C2CC2)c2c(F)c(N3CC[C@H](NC(=O)OC(C)(C)C)C3)c(F)cc2c1=O	148 to 151

Other lines, results leading:

melting point [°C]	SMILES
233 to 235	CCCCOc1ccc(-c2nnc(Nc3ccc(Cl)c(Cl)c3)s2)cc1
181 to 183	COC(=O)CCC(=O)c1ccc(NS(C)(=O)=O)cc1
137 to 139	O=C1N(CC2COCCO2)c2ccccc2C12COc1cc3c(cc12)OCCCO3 (stereo unspecified)
222 to 223	CCOC(=O)C1=C(N)Nc2ncnc(OC(C)C)c2C1c1ccccc1OC (stereo unspecified)
> 300	O=c1[nH]c2cc(Cl)ccc2c(O)c1-c1ccc(Cl)cc1
217 to 221	O=C(/C=C/c1cccc(NS(=O)(=O)c2ccc(C(=O)Nc3ccc(Cl)c(-c4ccccn4)c3)c(Cl)c2)c1)NO
220 to 222	CC1CCCCC1C(=O)Nc1ccc(-c2cnc(-c3ccc(NC(=O)C4CCCCCC4)cc3)[nH]2)cc1 (stereo unspecified)
255 to 257	Cc1nc2cccc(C)c2c(=O)[nH]1
140 to 145	CC#CCOc1ccc(S(=O)(=O)N[C@H]2CCCC[C@H]2C(=O)NO)cc1
265 to 268	CNCCCn1c2ccc(O)cc2c2c3c(c(-c4ccccc4)cc21)C(=O)NC3=O
201 to 202	O=S(=O)(Nc1cccc2cc(-c3nc4ccccc4s3)[nH]c12)c1cccs1
153 to 154	Cc1cc(O)c(C)c(C)c1N
139 to 141	O=C(O)C1CSC(c2ccc(OCCO[N+](=O)[O-])cc2)N1 (stereo unspecified)
203 to 205	O=C(Nc1ccc(CP(=O)(O)O)cc1)C1=Cc2cc(C3CCCCC3)ccc2CC1
248	O=C1Nc2ccc(Cl)cc2C1(Cl)c1cccc(F)c1F (stereo unspecified)
160 to 169	CN(C)c1nc(=O)c2ccccc2n1Cc1ccc(F)cc1
269 to 271	Cc1ccc2c(c1)C1(COc3cc4c(cc31)OCO4)C(=O)N2 (stereo unspecified)

melting point [°C]	SMILES
171 to 172	CC(=S)NC[C@H]1CN(c2ccc(N3CCC(n4ccnn4)CC3)c(F)c2)C(=O)O1
165 to 166	Cc1ccc(C(NCC(=O)Nc2c(C(C)C)cccc2C(C)C)c2ccccc2)cc1 (stereo unspecified)
73 to 74	COC1(c2cc(F)cc(Sc3ccc(C(C)=O)cn3)c2)CCOCC1
95 to 97	C=CCn1c(C)nc2c1CC(C(=O)OCC)CC2=O (stereo unspecified)
152 to 154	CCCc1nc2c(N)nc3cc(OCCCn4cccc4)ccc3c2s1
169	OCCOc1ccc(-c2nc(-c3ccc(OCCO)cc3O)nc(-c3ccc(OCCO)cc3O)n2)cc1
273 to 274	CSc1sc(C(=O)O)c2c1-c1nc(C)sc1CC2
> 300	C#Cc1c[nH]c2nc(NC(=O)C(C)(C)C)nc(O)c12
115	COC(=O)CCNc1cc(Oc2ccc(Cl)cc2Cl)ccc1[N+](=O)[O-]
173 to 174	CNc1nnc(-c2cccc(F)c2)c(=O)n1NC
132 to 133	CON(c1ccc([N+](=O)[O-])cc1Cl)S(=O)(=O)c1ccc(Cl)c(Cl)c1
78 to 81	Cc1ccccc1-c1cccc(F)c1C(=O)NCCCl
210 to 213	CC1CCC(CCC(=O)O)(CCC(=O)O)C(=O)C1(CCC(=O)O)CCC(=O)O (stereo unspecified)
256 to 258	O=C(NC1CNCCn2c1nc(-c1ccncn1)cc2=O)c1ccccn1 (racemic)
94 to 95	N[C@@H](Cc1cccc(OCC(F)(F)F)c1)[C@H](O)c1ccc(F)cc1 (racemic)
140 to 142	CNc1ccc(-c2ocnc2-c2cc(OC)cc(OC)c2)cc1F
140 to 142	COc1cc2c(c(-c3cc(Cl)ccc3Cl)c1)OC(CN)C2 (stereo unspecified)

Source: a melting point compilation (Tetko et al.; mined from patent text by program, amines drawn as free bases though some values may be those of a salt)
